Data on one substance can be found in publication PMC12207360, “Hyperpolarization Modulation of the T‐Type hCav3.2 Channel by Human Synenkephalin [1–53], a Shrew Neurotoxin Analogue without Paralytic Effects” (Angewandte Chemie (International Ed. in English), 2025).

Where no end group is shown, it is not given here.

One series concerns trypsin. Nature of the series: Trypsin digestion. The conditions noted are these: intact peptide, without disulfide reduction. The protocol: (§1) To determine the connectivity of disulfide bonds in synthetic 2, enzymatic digestion and subsequent fragment peptide analysis were performed. […] However, due to high proteolytic stability, analysis of these degraded products provided little information on the disulfide bond connectivity in 2. To perform stepwise S‐alkylation with limiting reduction of disulfide bonds,^[ [52], [53] ^] 2 was denatured with 6 M aq. guanidine hydrochloride (GdmCl)/0.1 M aq. citrate, followed by tris(2‐carboxyethyl)phosphine (TCEP) reduction and Michael addition to N‐ethylmaleimide (NEM). As a result, we obtained six kinds of S‐alkylated products (2SS‐a/b/c and 1SS‐a/b/c) with one or two disulfide bonds cleaved, respectively, along with unreacted 2 (3SS) and a fully S‐alkylated product (0SS) (Scheme 1a and Figure S4a). HPLC‐purified 1SS‐a (3) and 1SS‐b (4), which have different patterns of four Cys(S‐Nem) residues, were then reduced with DTT and alkylated with iodoacetamide.

A further series deals with several enzymes. Nature of the series: Susceptibility to several enzymes / degradation. The conditions noted are these: intact hSYN; compared with paralytic effect of BPP2 on mealworms. The protocol:
as §1

Series [1] deals with mealworms (larva of Zophobas atratus). Nature of the series: Mealworm paralysis bioassay, i.p. injection. It counts as in vivo. Particulars: for Paralyzed/total numbers: 100 µL per 1 g bodyweight, immediate lower-body paralysis. The protocol:
Paralytic activity against mealworms was examined by using synthetic 2 dissolved in saline with mealworms (larva of Zophobas atratus, body weight: 0.7–1.0 g), as described previously.28 Synthetic hSYN was injected into the abdomen of mealworms and observed immediate lower-body paralysis (injection volume: 100 μL per 1.0 g mealworm bodyweight).
Phosphate buffered saline (PBS) was used as a control. […]
HEPES. The patch pipettes were ﬁlled with solution containing 130 mM CsCl, 10 mM EGTA, 3 mM Mg–AT P, a n d 0 . 4 m M […]
(§2) Circular dichroism spectrometry and stereostructure prediction of hSYN. […]
(§3) In brief, synthetic hSYN [1–53] (2) was dissolved in 50 mM KHPO4, pH 7.0 (ﬁnal concentration: 20 μM) in a 1 mm pathlength cell. The spectrum consisted of ﬁve scans acquired with a scan rate of 20 nm/min and a digital integration time of 2 sec. […]
(§4) Schrödinger, LLC) was used for calculation of surface charge and final image processing which suitable for scientific

Series [2] deals with glutamyl endopeptidase (Glu-C). Nature of the series: Glutamyl endopeptidase (Glu-C) digestion. The conditions noted are these: intact peptide, without disulfide reduction. The procedure:
as §1

For series [3], the system named is human T-type voltage-gated calcium channel (hCav3.2). The experiment in a line: Whole-cell patch-clamp of voltage-gated Ca2+ currents in HEK293T cells expressing hCav3.2. It is filed as cell-based. The conditions noted are these: 0.74 µM, n = 5. The procedure:
Normalized conductance (G/G max) was generated for both data sets, fit to a Boltzmann equation, and is shown as data ± S.E.M. (n = 5). Statistical analyses were performed using Dunnett's multiple comparison tests. ^* p < 0.05 versus control. […]
Electrophysiological assays were done on human Cav3.2 channel, which was expressed on human embryonic kidney 293T (HEK293T) cells using Lipophectamine® 3000 transfection reagent. A pcDNA3 plasmid construct containing the complete sequence coding the human α1H-subunit of the Cav3.2 channel flanked by a green fluorescent protein was kindly provided by Prof. Edward Perez–Reyes (University of Virginia, Charlottesville, Virginia, USA).S1 Vo l t a g e-gated Ca2+ currents were recorded by the whole-cell patch-clamp technique, as previously described.28,S2 This recording was performed in the whole-cell conﬁguration using an Axopatch 200B Ampliﬁer (Axon CNS, Molecular Devices) at a holding potential of –90 mV. Cells were depolarized from the –90 mV holding potential to +80 mV with +10 mV voltage steps of 200 ms. The current amplitude was measured at the peak. The current density was determined with the cell capacitance to establish the density-voltage curves.
The currents were ﬁltered at 2 kHz and sampled at 5 kHz using an A/D converter, the Digidata 1440A (Axon CNS, Molecular Devices). The leak was subtracted automatically by a P/4 protocol (pclamp10, Axon CNS, Molecular Devices). For the recording Ca2+ currents, the bath solution contained 125 mM N-methyl-D-glucamine, 5 mM 4-aminopyridine, 20 mM tetraethylammonium chloride, 2 mM CaCl2, 2 mM MgCl2, and 10 mM D-glucose and was buffered to pH 7.4 with 10 mM HEPES. The patch pipettes were ﬁlled with solution containing 130 mM CsCl, 10 mM EGTA, 3 mM Mg–AT P, a n d 0 . 4 m M Li–GTP with the pH adjusted to 7.2 by 25 mM HEPES. Statistical analyses were performed using Dunnett’s multiple comparison tests. *, p < 0.05 versus control.
as §2, §3, §4

With “human synenkephalin [1–53] (ECSQDCATCSYRLVRPADINFLACVMECEGKLPSLKIWETCKELLQLSKPELP; disulfide (positions not given here); also: Type II disulfides, places not given here; UniProt P01210 25-77, looked up, fragment) [compound 2, human synenkephalin N-terminal part [1–53], three disulfide bonds Cys(I)–Cys(V), Cys(II)–Cys(IV), Cys(III)–Cys(VI)]”, the “proteolytic stability toward trypsin” value in the series with trypsin is “partially digested”. Besides, in the series on several enzymes, the enzymatic degradation result was “susceptible to several enzymes, its degradation was much slower than the paralytic effect of BPP2 on mealworms”. Also, the figures for the Paralyzed/total numbers in series [1] (5.0 µg/g bodyweight), in series [1] (15 µg/g bodyweight) and in series [1] (50 µg/g bodyweight) were 0/4, 0/3 and 0/4, respectively. The “paralytic effect on mealworms” value in series [1] (even at 50 µg g−1 body weight) was “no paralytic effects on mealworms”. In addition, the “proteolytic stability toward Glu-C” value in series [2] is recorded as “partially digested”. For the same substance, the “lowest current density peak” value in series [3] (at −30 mV (control ca. −59 pA/pF at −10 mV)) is reported as “ca. −42 pA/pF”. In addition, the “voltage of lowest current density peak” value in series [3] (control peak at −10 mV) is on record as −30 mV. The “current density at 0 to +20 mV” value in series [3] (suggesting a block at higher membrane depolarization) is recorded as “significantly reduced”. Further, in series [3] (whole-cell patch clamp, HEK293T cells, holding potential –90 mV, pH 7.4, Boltzmann fit, ± S.E.M., p < 0.05 versus control), the “hyperpolarization shift of hCav3.2 activation” value is on record as −15 mV.
